How the values were obtained:
Phytophthora infestans = assay type: in vivo; conditions: tomato plants, preventive spray, 500 ppm, grading 5 days after contamination
[1] = logP by HPLC on reversed phase columns (EEC directive 79/831 Annex V.A8); conditions: method [a]: LC-MS at pH 2.7, 0.1% formic acid in water / acetonitrile gradient 10% to 95%
Puccinia recondita = experiment: In vivo preventive test on Puccinia recondita (brown rust on wheat); conditions: wheat plants, preventive spray, 500 ppm, grading 12 days after contamination
Experimental: Example: In Vivo Preventive Test on Puccinia recondita (Brown Rust on Wheat) […] Wheat plants (“Scipion” variety), sown in starter cups on a 50/50 peat soil-pozzolana substrate and grown at 22° C., are treated at the 1-leaf stage (10 cm height) by spraying with the active ingredient prepared as described above. Plants, used as controls, are treated with the mixture of acetone/tween/DMSO/water not containing the active material. After 24 hours, the plants are contaminated by spraying the leaves with an aqueous suspension of Puccinia […] spores (100 000 spores per ml). […] Grading (% of efficacy) is carried out 12 days after the contamination, in comparison with the control plants. Under these conditions, good (at least 70%) or total protection is observed at a dose of 500 ppm with the following compounds: […]

Sphaerotheca fuliginea = experiment: In vivo preventive test on Sphaerotheca fuliginea (powdery mildew on cucurbits); conditions: gherkin plants, preventive spray, 500 ppm, grading 12 days after contamination
Experimental: Example: In Vivo Preventive Test on Sphaerotheca fuliginea (Powdery Mildew on Cucurbits) […] Gherkin plants (“Vert petit de Paris” variety), sown in starter cups on a 50/50 peat soil-pozzolana substrate and grown at 24° C., are treated at the Z11 cotyledon stage by spraying with the active ingredient prepared as described above. Plants, used as controls, are treated with the mixture of acetone/tween/DMSO/water not containing the active material. After 24 hours, the plants are contaminated by spraying the cotyledons with an aqueous suspension of Sphaerotheca fuliginea spores (100 000 spores per ml). The spores are collected from infected plants. […] Grading (% of efficacy) is carried out 12 days after the contamination, in comparison with the control plants. Under these conditions, good (at least 70%) or total protection is observed at a dose of 500 ppm with the following compounds: […]

Uromyces appendiculatus = experiment: In vivo preventive test on Uromyces appendiculatus (bean rust); conditions: bean plants, preventive spray, 500 ppm, grading 11 days after contamination
Experimental: Example: In Vivo Preventive Test on Uromyces appendiculatus (Bean Rust) […] Bean plants (“Saxa” variety), sown in starter cups on a 50/50 peat soil-pozzolana substrate and grown at 24° C., are treated at the 2-leaf stage (9 cm height) by spraying with the active ingredient prepared as described above. Plants, used as controls, are treated with the mixture of acetone/tween/DMSO/water not containing the active material. After 24 hours, the plants are contaminated by spraying the leaves with an aqueous suspension of Uromyces appendiculatus spores (150 000 spores per ml). […] Grading (% of efficacy) is carried out 11 days after the contamination, in comparison with the control plants. Under these conditions, good (at least 70%) or total protection is observed at a dose of 500 ppm with the following compounds: […]

Alternaria brassicae = experiment: In vivo preventive test on Alternaria brassicae (leaf spot on radish); conditions: radish plants, preventive spray, 500 ppm, grading 6 days after contamination
Experimental: Example: In Vivo Preventive Test on Alternaria brassicae (Leaf Spot on Radish) […] Radish plants (“Pernod Clair” variety), sown in starter cups on a 50/50 peat soil-pozzolana substrate and grown at 17° C., are treated at the cotyledon stage by spraying with the active ingredient prepared as described above. Plants, used as controls, are treated with the mixture of acetone/tween/DMSO/water not containing the active material. After 24 hours, the plants are contaminated by spraying the cotyledons with an aqueous suspension of Alternaria brassicae spores (50 000 spores per ml). The spores are collected from a 15-day-old culture. […] Grading (% of efficacy) is carried out 6 days after the contamination, in comparison with the control plants. Under these conditions, good (at least 70%) or total protection is observed at a dose of 500 ppm with the following compounds: […]

Pyricularia oryzae = assay type: in vivo; conditions: rice plants, preventive spray, 500 ppm, grading 6 days after contamination
Botrytis cinerea = experiment: In vivo preventive test on Botrytis cinerea (grey mould); conditions: gherkin plants, preventive spray, 500 ppm, grading 4 to 5 days after contamination
Experimental: Example: In Vivo Preventive Test on Botrytis cinerea (Grey Mould) […] Gherkin plants (“Vert petit de Paris” variety), sown in starter cups on a 50/50 peat soil-pozzolana substrate and grown at 24° C., are treated at the Z11 cotyledon stage by spraying with the active ingredient prepared as described above. Plants, used as controls, are treated with the mixture of acetone/tween/DMSO/water not containing the active material. After 24 hours, the plants are contaminated by spraying the cotyledons with an aqueous suspension of cryopreserved Botrytis cinerea spores (50 000 spores per ml). The spores are suspended in a nutrient solution composed of 10 g/L of PDB, 50 g/L of D-Fructose, 2 g/L of NH4NO3 and 1 g/L of KH2PO4. […] Grading (% of efficacy) is carried out 4 to 5 days after the contamination, in comparison with the control plants. Under these conditions, good (at least 70%) or total protection is observed at a dose of 500 ppm with the following compounds: […]

Pyrenophora teres = experiment: In vivo preventive test on Pyrenophora teres (net blotch on barley); conditions: barley plants, preventive spray, 500 ppm, grading 14 days after contamination
Experimental: Example: In Vivo Preventive Test on Pyrenophora teres (Net Blotch on Barley) […] Barley plants (“Plaisant” variety), sown in starter cups on a 50/50 peat soil-pozzolana substrate and grown at 22° C., are treated at the 1-leaf stage (10 cm height) by spraying with the active ingredient prepared as described above. Plants, used as controls, are treated with the mixture of acetone/tween/DMSO/water not containing the active material. After 24 hours, the plants are contaminated by spraying the leaves with an aqueous suspension of Pyrenophora teres spores (12 000 spores per ml). The spores are collected from a 12-day-old culture. […] Grading (% of efficacy) is carried out 14 days after the contamination, in comparison with the control plants. Under these conditions, good (at least 70%) or total protection is observed at a dose of 500 ppm with the following compounds: […]

Septoria tritici = experiment: In vivo preventive test on Septoria tritici (leaf spot on wheat); conditions: wheat plants, preventive spray, 500 ppm, grading 24 days after contamination
Experimental: Example: In Vivo Preventive Test on Septoria tritici (Leaf Spot on Wheat) […] Wheat plants (“Scipion” variety), sown in starter cups on a 50/50 peat soil-pozzolana substrate and grown at 22° C., are treated at the 1-leaf stage (10 cm height) by spraying with the active ingredient prepared as described above. Plants, used as controls, are treated with the mixture of acetone/tween/DMSO/water not containing the active material. After 24 hours, the plants are contaminated by spraying the leaves with an aqueous suspension of cryopreserved Septoria tritici spores (500 000 spores per ml). […] Grading (% of efficacy) is carried out 24 days after the contamination, in comparison with the control plants. Under these conditions, good (at least 70%) or total protection is observed at a dose of 500 ppm with the following compounds: […]

Phakopsora pachyrhizi = experiment: In vivo Phakopsora test (soybeans)/preventive; conditions: preventive, 100 ppm of active ingredient, evaluated 7 days after inoculation
Experimental: Example: In Vivo Phakopsora Test (Soybeans)/Preventive Solvent: 24.5 parts by weight of acetone • 24.5 parts by weight of dimethylacetamide Emulsifier: • 1 part by weight of alkylaryl polyglycol ether To produce a suitable preparation of active compound, 1 part by weight of active compound is mixed with the stated amounts of solvent and emulsifier, and the concentrate is diluted with water to the desired concentration. To test for preventive activity, young plants are sprayed with the preparation of active compound at the stated rate of application. After the spray coating has dried on, the plants are inoculated with an aqueous to spore suspension of the causal agent of soybean rust (Phakopsora pachyrhizi) and stay for 24 h without light in an incubation cabinet at approximately 24° C. and a relative atmospheric humidity of 95%.

Row | Compound | Eff. % (Phytophthora infestans) | logP [1] | Eff. % (Puccinia recondita) | Eff. % (Sphaerotheca fuliginea) | Eff. % (Uromyces appendiculatus) | Eff. % (Alternaria brassicae) | Eff. % (Pyricularia oryzae) | Eff. % (Botrytis cinerea) | Eff. % (Pyrenophora teres) | Eff. % (Septoria tritici) | Eff. % (Phakopsora pachyrhizi)
1 | C#CCON=C(C)c1ccc(-c2ccccc2NC(=O)c2c(C(F)F)nn(C)c2Cl)cc1 [Example 3] | 99% | 4.06[a] | 98% | 70% | 100% |  |  |  |  |  | 
2 | C#CCON=Cc1ccc(-c2ccccc2NC(=O)c2c(C(F)F)nn(C)c2Cl)cc1 [Example 5] |  | 3.79[a] | 100% | 100% | 100% | 88% | 90% | 100% | 86% |  | 
3 | CCON=Cc1ccc(-c2ccccc2NC(=O)c2c(C(F)F)nn(C)c2Cl)cc1 [Example 6] |  | 4.19[a] | 100% | 100% | 100% | 97% | 100% | 93% | 100% |  | 
4 | C#CCON=C(C)c1ccc(-c2ccccc2NC(=O)c2c(C(F)F)nn(C)c2F)cc1 [Example 12] |  | 3.8[a] | 98% | 96% | 100% | 97% |  | 85% | 80% | 75% | 
5 | CC#CCON=C(C)c1ccc(-c2ccccc2NC(=O)c2c(C(F)F)nn(C)c2F)cc1 [Example 13] |  | 4.11[a] | 100% | 100% | 100% |  |  | 80% | 88% | 80% | 100%
6 | CCON=Cc1ccc(-c2ccccc2NC(=O)c2c(C(F)F)nn(C)c2Cl)cc1F [Example 18] |  | 4.22[a] | 97% | 100% | 100% | 94% |  | 70% | 100% | 75% | 
7 | CC#CCON=Cc1ccc(-c2ccccc2NC(=O)c2c(C(F)F)nn(C)c2F)cc1 [Example 21] |  | 3.87[a] | 94% | 100% | 100% |  |  | 98% | 88% | 96% | 
8 | CC#CCON=Cc1ccc(-c2ccccc2NC(=O)c2c(C(F)F)nn(C)c2Cl)cc1 [Example 22] |  | 4.13[a] | 98% | 100% | 100% | 75% |  | 98% |  | 96% | 
9 | CON=Cc1ccc(-c2ccccc2NC(=O)c2c(C(F)F)nn(C)c2Cl)cc1C [Example 25] |  | 4.04[a] | 100% | 100% | 94% | 94% |  | 98% | 100% | 75% | 
10 | CC#CCON=C(C)c1ccc(-c2ccccc2NC(=O)c2c(C(F)F)nn(C)c2Cl)cc1 [Example 27] |  | 4.41[a] | 98% | 100% | 100% |  |  |  |  | 70% | 100%
11 | CON=Cc1ccc(-c2c(F)cccc2NC(=O)c2c(C(F)F)nn(C)c2Cl)cc1 [Example 28] |  | 3.76[a] | 89% | 100% | 100% | 92% |  |  | 93% | 92% | 
12 | CON=Cc1ccc(-c2cc(F)ccc2NC(=O)c2c(C(F)F)nn(C)c2Cl)cc1 [Example 30] |  | 3.66[a] | 100% | 100% | 100% | 97% |  |  | 93% | 97% | 
13 | CCON=Cc1ccc(-c2ccccc2NC(=O)c2c(C(F)F)nn(C)c2Cl)cc1C [Example 39] |  | 4.48[a] | 97% | 100% | 100% | 94% |  | 99% | 100% | 92% | 
14 | CCON=Cc1ccc(-c2c(F)cccc2NC(=O)c2c(C(F)F)nn(C)c2Cl)cc1 [Example 40] |  | 4.18[a] | 97% | 100% | 100% | 94% |  |  | 90% | 75% | 
